One data set deals with HUVECs. Briefly: HUVEC morphology, phase-contrast microscopy. It counts as cell-based, human. Particulars: 24 h incubation. On the procedure: (§1) As a third in vitro toxicity study in the human blood circulation system, the effects of FA, D1, and D2 on the viability of human umbilical vein endothelial cells (HUVECs; RRID CVCL_2959; Lonza, Italy; Cat. no. CC-2517) were determined using the WST-1 assay (Takara, Takara Bio Europe, Europe, Saint-Germain-en-Laye, France), according to the previously published protocol.[32] Briefly, the cells were cultured according to the manufacturer’s guidelines with the following ingredients: EGM-2-medium + bullet kit (Lonza, Clonetics, Italy), accutase (Sigma-Aldrich, Germany), and HEPES-buffered saline solution (Lonza, Basel, Switzerland). For the assay, the cells were seeded at the density of 7 500 HUVECs per well on 96-well plates and cultured for 24 h to obtain 70% confluency. Subsequently, the cells were treated with studied compounds in multiplicate (n = 6–8) at the concentration of 0.1–100 μM in the growth medium for 24 h (37 °C, 5% CO2). Cells with untreated growth medium represented 100% viability, whereas cells treated with medium containing 0.5% (v/v) methanol served as a negative control for drug solvent. After treating cells for 24 h, medium was removed, the cells were washed with the culture medium (100 μl/well), and 100 μL of WST-1 reagent dissolved in culture medium was added into each well. The plates were incubated at 37 °C with 5% CO2 for 2 h, after which absorbance values were measured at the 450 nm wavelength using a microplate reader (iMARK, Bio-Rad). Additionally, the effects of treatments on HUVEC morphology were examined microscopically using a phase-contrast Opta-Tech inverted microscope equipped with OptaView 7 software (Opta-Tech, Warsaw, Poland) for image analysis.

The conditions of data set [1]: mouse plasma, equilibrium dialysis, 4 h incubation, n = 2; cited from earlier work. Background: Equilibrium dialysis compares concentrations on both sides of a semipermeable membrane.
Data set [2] in a line: Non-specific binding in S9 fractions of mouse liver, kidney and pancreas homogenates, rapid equilibrium dialysis. The class given is in vitro ADME. Particulars: for fraction unbound at 4 h, 50 μM: pH 7.4, 37 °C, mean ± SD (n = 3); for unbound (free) portion, range over liver, kidney and pancreas: range over the studied mouse tissues. The method, then: The unbound fractions of FA, D1, and D2 were determined in the S9 subcellular fractions of the mouse liver, kidneys, and pancreas using rapid equilibrium dialysis (RED) plates (Thermo Fisher Scientific, Inc., Waltham, MA, USA). Briefly, the studied compounds were spiked at a 50 μM concentration into 100 μL of mouse homogenate S9 subcellular fraction and transferred to the reaction chamber. Homogenate dilutions were 1:4 (w/v) for the liver and kidney, and 1:20 (w/v) for the pancreas. A total of 350 μL of TBS (pH 7.4) buffer was added to the buffer chamber of the RED plate. The dialysis plate was incubated at 37 °C with shaking for 4 h. Samples of 50 μL were collected from both the reaction and buffer chambers, and equal amounts of buffer and S9 fraction were added to the collected samples, respectively, to yield identical sample matrices. The proteins were precipitated by diluting samples with 100 μL of ice-cold acetonitrile. Samples were centrifuged at 12 000 × g for 10 min, and the supernatants were collected for HPLC analysis.
The unbound fraction (fu,tissue) of the FA and its derivatives was calculated using eq 1 [drawing 1] 1 where D is the dilution factor of studied tissue homogenate, and fu,homogenate is the distribution ratio of the studied compound measured in the reaction and buffer chambers within the equilibrium dialysis assay.[29]

A short description of data set [3]: RBC lysis assay (hemolysis). The class given is cell-based. Particulars: 2% erythrocyte (RBC) suspension, human RBCs, 37 °C, Triton X = 100%, control 2.08 ± 0.15%, read-out: hemolysis rate. On the procedure: To further evaluate the safety of derivatives in human blood, the effects of FA, D1, and D2 on hemolysis were studied using a previously described protocol.[31] Shortly, freshly collected erythrocytes were washed three times with 1 mL of 0.9% saline (Sigma-Aldrich, Germany). Subsequently, 2% RBC suspension was prepared by diluting 1 mL of erythrocytes in 50 mL of 0.9% saline. FA, D1, and D2 (1–100 μM) were incubated with the RBC suspension at 37 °C for 1 h. Additionally, negative controls containing 0.9% NaCl and positive controls with Triton X-100 (Polish Chemical Reagents, Poland) were studied. After incubation, the samples were centrifuged at 3 000 rpm for 10 min, and the absorbance values were measured from the collected supernatants at the wavelength of 550 nm. Samples with Triton X (positive control) represented 100% hemolysis. Results of the studies are presented as a percentage of released hemoglobin. The counted CV was 8.1% (n = 5). Additionally, the influence of FA and its derivatives (25–100 μM) on RBC morphology was studied using a phase contrast Opta-Tech inverted microscope. The morphology was analyzed using a dedicated OptaView 7 software (Opta-Tech, Warsaw, Poland).

The nature of data set [4]: HUVEC viability, WST-1 assay. It counts as cell-based, human. Particulars: human, HUVEC cells; WST-1, 24 h, % of control, mean ± SD (n = 6–8). On the procedure:
as §1
A general note: Tetrazolium dyes change colour on reduction, which living cells bring about.

For data set [5] the following is noted: mice, cited from earlier work; for AUCtotal plasma of released FA / AUCu, plasma of released FA / Cmax, u plasma of released FA: FA released from the dosed derivative; for AUCtotal plasma of released FA / AUCu, plasma of released FA / Cmax, u plasma of released FA / tmax plasma / Cmax / AUCu, plasma / Cmax, u plasma: 25 μmol/kg i.p.; for AUCtotal plasma: 25 μmol/kg i.p. bolus; for peak concentration in plasma: after a high bolus dose (25 μmol/kg i.p.); for Cmax: read-out: Cmax plasma; for AUCu, plasma / Cmax, u plasma: unbound.

[6] abbreviates: S9 subcellular fraction of kidney homogenate, mouse kidney S9, 50 μM, read-out: fu, kidney (%).
Where [7] appears, read: S9 subcellular fraction of liver homogenate, mouse liver S9, 50 μM, read-out: fu, liver (%).
[8] abbreviates: S9 subcellular fraction of pancreas homogenate, mouse pancreas S9, 50 μM, read-out: fu, pancreas (%).

Structures are written as SMILES. Read-outs that look alike come from different tables or passages of the source. Marks after values point to notes of the source that are not given here.

For the compound `COc1cc(C=CC(=O)NCc2cccc(CC(N)C(=O)O)c2)ccc1O` (stereo not shown) [derivative 1], in the data set on HUVECs, the “HUVEC morphology at 100 μM” value is on record as “slightly more rounded, bright dead cells were observed” and the “HUVEC morphology at 25–50 μM” value is “did not cause significant changes in HUVEC morphology”. Further, in data set [1], the “fu, plasma (%)” value was 19.66–30.62 ^b %. For the same compound, the fraction unbound at 4 h, 50 μM in data set [2] (setting [6]) came to 0.469 ± 0.0593. Also, the fraction unbound at 4 h, 50 μM in data set [2] (setting [7]) amounted to 0.425 ± 0.0544. The fraction unbound at 4 h, 50 μM in data set [2] (setting [8]) amounted to 0.28 ± 0.0147. The “unbound (free) portion, range over liver, kidney and pancreas” value (“unbound (free) portion, range over liver” for short) in data set [2] is 28.02–46.85%. In data set [3], the hemolysis at 1 h, 100 µM is 3.58 ± 0.69%. For the same compound, in data set [4], the viability at 24 h, 50 µM worked out at 89 ± 7.27% and the viability at 24 h, 100 µM was 80.7 ± 4.26%. In addition, in data set [5], the “AUCtotal plasma of released FA” value is 507 nmol·min/mL; the “AUCu, plasma of released FA” value is 54 nmol·min/mL; the “Cmax, u plasma of released FA” value was 0.3 µM; the AUCtotal plasma was 1042 nmol·min/mL. In addition, in data set [5], the tmax plasma is listed as 10 min; the “peak concentration in plasma” value was 41.9 µM; the Cmax was 41.9 µM; the “AUCu, plasma” value was 262 nmol·min/mL. In addition, the “Cmax, u plasma” value in data set [5] was 10.5 µM.
As to `COc1cc(/C=C/C(=O)Nc2cccc(C[C@H](N)C(=O)O)c2)ccc1O` [derivative 2], in the data set on HUVECs, the “HUVEC morphology at 50 μM” value is reported as “first brighter cells appearing”; the “HUVEC morphology at 100 μM” value is “reduced the number of viable cells and cell density as well as caused an irregular shape with cytoplasm leakage”. Besides, the “fu, plasma (%)” value in data set [1] is recorded as 8.37–9.01 ^b %. Moreover, the fraction unbound at 4 h, 50 μM in data set [2] (setting [6]) was found to be 0.305 ± 0.0063. The fraction unbound at 4 h, 50 μM in data set [2] (setting [7]) came out at 0.236 ± 0.0109. Further, the fraction unbound at 4 h, 50 μM in data set [2] (setting [8]) stood at 0.15 ± 0.0206. Moreover, the “unbound (free) portion, range over liver” value in data set [2] is reported as 15.01–30.52%. Further, the hemolysis at 1 h, 100 µM in data set [3] came out at 1.97 ± 1.25%. In data set [4], the viability at 24 h, 50 µM was 73.5 ± 14.7% and the viability at 24 h, 100 µM turned out to be 60.3 ± 16.9%. In data set [5], the “AUCtotal plasma of released FA” value was 75 nmol·min/mL; the “AUCu, plasma of released FA” value is 8 nmol·min/mL; the “Cmax, u plasma of released FA” value was 0.2 µM; the AUCtotal plasma was 463 nmol·min/mL. For the same compound, in data set [5], the tmax plasma was 10 (released 10) min; the Cmax was 21.1 µM; the “AUCu, plasma” value is 40 nmol·min/mL; the “Cmax, u plasma” value is 1.8 µM.
Regarding `COc1cc(C=CC(=O)O)ccc1O` [ferulic acid, 4-hydroxy-3-methoxycinnamic acid], in the data set on HUVECs, the “HUVEC morphology at 100 μM” value is “more elongated cells were seen” and the “HUVEC morphology at 25–50 μM” value is “did not change cell morphology”. Besides, the “fu, plasma (%)” value in data set [1] is on record as 9.94–11.51 ^b %. For the same compound, in data set [2] (setting [6]), the fraction unbound at 4 h, 50 μM is 0.991 ± 0.105. For the same compound, in data set [2] (setting [7]), the fraction unbound at 4 h, 50 μM was found to be 0.849 ± 0.145. In addition, the fraction unbound at 4 h, 50 μM in data set [2] (setting [8]) came to 0.993 ± 0.0196. The “unbound (free) portion, range over liver” value in data set [2] is on record as 84.94–99.30%. The hemolysis at 1 h, 100 µM in data set [3] worked out at 2.38 ± 1.84%. Further, the viability at 24 h, 100 µM in data set [4] was found to be 62.6 ± 15%. In data set [5], the AUCtotal plasma was 591 nmol·min/mL, the tmax plasma was 10 min, the “peak concentration in plasma” value is 33.2 µM and the Cmax was 33.2 µM. In addition, in data set [5], the “AUCu, plasma” value was 63 nmol·min/mL and the “Cmax, u plasma” value was 3.6 µM.

The viability is the share of living cells, or the viability signal relative to a control. The low end stands for more harm to the cells, the high end for less harm to the cells. For orientation: Cmax means the maximum level reached in the sampled fluid or tissue.

These data come from PMC9644403, “L-type Amino Acid Transporter 1 Utilizing Ferulic Acid Derivatives Show Increased Drug Delivery in the Mouse Pancreas Along with Decreased Lipid Peroxidation and Prostaglandin Production” (Molecular Pharmaceutics, 2022).
